US20240360151A1 (SANOFI, priority 2023, published 2024)

Legend:
[1] = test system: NF-kB pathway (TNF-α secretion by THP-1 cells); assay: TNF-α secretion assay in LPS-stimulated THP-1 cells, Lumit immunoassay; format: cell-based, human; conditions: Homo sapiens, THP-1, 3 h, monocytic THP-1 cells, LPS 10 ng/mL, relative IC50, 10 concentrations, geometric mean
Method in brief: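 THP-1 monocytes in RPMI with 5% FBS were treated with compound, then stimulated with 10 ng/mL LPS for 3 h. Secreted TNF-α was measured in-plate by Lumit immunoassay. Relative IC50 came from 10-concentration curves fitted with a 4-parameter logistic model, reported as geometric mean.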

NLRP3 inflammasome = target: T1, NLRP3 inflammasome (Homo sapiens, UniProt Q96P20); assay: IL-1β secretion assay (NLRP3 IC50) in LPS-primed, nigericin-activated THP-1 cells, HTRF; format: cell-based; conditions: monocytic THP-1 cells; LPS 10 ng/mL 3 h priming, then compound + nigericin 10 μM 2 h; relative IC50, 10 concentrations, geometric mean
T1 construct: endogenous in cells; host or cells: THP-1 monocytic cells
Method in brief: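 THP-1 cells primed with LPS 10 ng/mL for 3 h at 37° C., then compound (10-point 1:3 dilution, 0.1% DMSO) added with 10 μM nigericin for 2 h. Supernatant IL-1β measured by HTRF; relative IC50 from a 4-parameter logistic fit, reported as geometric mean.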

T1 sequence (Q96P20 whole entry): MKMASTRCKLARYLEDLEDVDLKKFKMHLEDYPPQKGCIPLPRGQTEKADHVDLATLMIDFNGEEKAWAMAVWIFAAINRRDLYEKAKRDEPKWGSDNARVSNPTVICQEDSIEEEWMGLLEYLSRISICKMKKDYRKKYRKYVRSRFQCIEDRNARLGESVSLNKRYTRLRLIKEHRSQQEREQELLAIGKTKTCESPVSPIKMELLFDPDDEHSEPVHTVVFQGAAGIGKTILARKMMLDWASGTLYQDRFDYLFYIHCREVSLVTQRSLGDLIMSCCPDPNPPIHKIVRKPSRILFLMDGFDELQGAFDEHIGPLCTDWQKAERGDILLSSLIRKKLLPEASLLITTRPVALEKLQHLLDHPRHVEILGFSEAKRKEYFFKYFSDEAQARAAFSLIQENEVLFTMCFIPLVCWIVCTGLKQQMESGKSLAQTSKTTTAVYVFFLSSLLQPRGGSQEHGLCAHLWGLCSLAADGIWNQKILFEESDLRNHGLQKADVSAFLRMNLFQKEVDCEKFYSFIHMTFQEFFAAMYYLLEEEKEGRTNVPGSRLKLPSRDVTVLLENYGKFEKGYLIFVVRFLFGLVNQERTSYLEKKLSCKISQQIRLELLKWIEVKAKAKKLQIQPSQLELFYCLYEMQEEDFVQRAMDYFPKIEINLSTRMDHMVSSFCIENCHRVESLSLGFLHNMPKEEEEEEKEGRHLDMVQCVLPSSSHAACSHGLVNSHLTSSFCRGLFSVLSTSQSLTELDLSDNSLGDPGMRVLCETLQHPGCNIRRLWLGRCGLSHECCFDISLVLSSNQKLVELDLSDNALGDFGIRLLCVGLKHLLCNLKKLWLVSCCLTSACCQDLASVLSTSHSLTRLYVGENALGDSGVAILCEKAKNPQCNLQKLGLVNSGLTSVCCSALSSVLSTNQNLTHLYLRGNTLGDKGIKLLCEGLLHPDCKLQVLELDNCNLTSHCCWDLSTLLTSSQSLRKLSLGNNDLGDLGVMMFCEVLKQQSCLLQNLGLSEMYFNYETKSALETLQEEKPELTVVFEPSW

| Compound | IC50 [1] [nM] | IC50 (NLRP3 inflammasome) [nM] |
| --- | --- | --- |
| CCc1cc(C)cc(O)c1-c1ccc(N2CCO[C@H](CO)C2)nn1 [Example 246, 3-ethyl-2-[6-[(2S)-2-(hydroxymethyl)morpholin-4-yl]pyridazin-3-yl]-5-methylphenol] | > 10000 | 12 |
| OC[C@@H]1CN(c2cc(C(F)F)c(-c3ccc(C(F)(F)F)cc3O)nn2)CCO1 [Example 247, 2-[4-(difluoromethyl)-6-[(2S)-2-(hydroxymethyl)morpholin-4-yl]pyridazin-3-yl]-5-(trifluoromethyl)phenol] | > 10000 | 168 |
| Cc1cc(C(F)(F)F)cc(O)c1-c1nnc(N2CCO[C@H](CO)C2)cc1C(F)F [Example 248, 2-[4-(difluoromethyl)-6-[(2S)-2-(hydroxymethyl)morpholin-4-yl]pyridazin-3-yl]-3-methyl-5-(trifluoromethyl)phenol] | > 10000 | 81 |
| Cc1cc(Cl)cc(O)c1-c1nnc(N2CCO[C@H](CO)C2)cc1C(F)F [Example 249, 5-chloro-2-[4-(difluoromethyl)-6-[(2S)-2-(hydroxymethyl)morpholin-4-yl]pyridazin-3-yl]-3-methyl-phenol] | > 10000 | 151 |
| Cc1cc(C(F)(F)F)cc(O)c1-c1ccc(N2C[C@@H](N)CC2=O)nn1 [Example 250, (4S)-4-amino-1-[6-[2-hydroxy-6-methyl-4-(trifluoromethyl)phenyl]pyridazin-3-yl]pyrrolidin-2-one] | > 10000 | 249 |
| Cc1cc(C)c(-c2ccc(N3CCc4ccc(O)cc43)nn2)c(O)c1 [Example 254, 1-[6-(2-hydroxy-4,6-dimethyl-phenyl)pyridazin-3-yl]indolin-6-ol] | 9970 | 460 |
| Cc1cc(C(F)(F)F)cc(O)c1-c1ccc(N2CCO[C@@H](C)C2)nn1 [Example 259, 3-methyl-2-[6-[(2S)-2-methylmorpholin-4-yl]pyridazin-3-yl]-5-(trifluoromethyl)phenol] | > 10000 | 67 |
| Cc1cc(C(F)(F)F)cc(O)c1-c1ccc(N2CCO[C@@H](CO)C2)nn1 [Example 266, 2-[6-[(2R)-2-(hydroxymethyl)morpholin-4-yl]pyridazin-3-yl]-3-methyl-5-(trifluoromethyl)phenol] | > 10000 | 73 |
| Cc1cc(C)c(-c2ccc(N3CCCc4ccccc43)nn2)c(O)c1 [Example 272, 2-[6-(3,4-dihydro-2H-quinolin-1-yl)pyridazin-3-yl]-3,5-dimethyl-phenol] | 6580 | 2340 |
| Cc1cc(C(F)(F)F)cc(O)c1-c1ccc(N2CCCC(CO)C2=O)nn1 (centres unmarked) [Example 273, 3-(hydroxymethyl)-1-[6-[2-hydroxy-6-methyl-4-(trifluoromethyl)phenyl]pyridazin-3-yl]piperidin-2-one] | > 10000 | 456 |
| Cc1cc(C(C)C)cc(O)c1-c1ccc(N2CCO[C@H](CO)C2)nn1 [Example 274, 2-[6-[(2S)-2-(hydroxymethyl)morpholin-4-yl]pyridazin-3-yl]-5-isopropyl-3-methyl-phenol] | > 10000 | 171 |
| CC(=O)NC[C@H]1CN(c2ccc(-c3c(C)cc(C(F)(F)F)cc3O)nn2)CCO1 [Example 275, N-[[(2S)-4-[6-[2-hydroxy-6-methyl-4-(trifluoromethyl)phenyl]pyridazin-3-yl]morpholin-2-yl]methyl]acetamide] | > 10000 | 127 |
| Cc1cc(C(F)(F)F)cc(O)c1-c1ccc(N2CCO[C@@H](CNC(=O)C(C)C)C2)nn1 [Example 276, N-[[(2S)-4-[6-[2-hydroxy-6-methyl-4-(trifluoromethyl)phenyl]pyridazin-3-yl]morpholin-2-yl]methyl]-2-methylpropanamide] | > 10000 | 515 |
| Cc1cc(Cl)cc(O)c1-c1ccc(N2CCO[C@H](CNC(=O)C(C)C)C2)nn1 [Example 279, N-[[(2R)-4-[6-(4-chloro-2-hydroxy-6-methylphenyl)pyridazin-3-yl]morpholin-2-yl]methyl]-2-methylpropanamide] | > 10000 | 277 |
| Cc1ccc(-c2nnc(N3CCO[C@@H]4CCN(C)C[C@@H]43)cc2C(F)F)c(O)c1 [Example 295, 2-[6-[(4aS,8aR)-6-methyl-3,4a,5,7,8,8a-hexahydro-2H-pyrido[4,3-b][1,4]oxazin-4-yl]-4-(difluoromethyl)pyridazin-3-yl]-5-methyl-phenol] | > 10000 | 2 |
| Cc1cc(C(F)(F)F)cc(O)c1-c1ccc(N2C[C@@H](CO)O[C@H](C)C2)nn1 [Example 296, 2-[6-[(2S,6R)-2-(hydroxymethyl)-6-methyl-morpholin-4-yl]pyridazin-3-yl]-3-methyl-5-(trifluoromethyl)phenol] | > 10000 | 28 |
| Cc1cc(C(F)(F)F)cc(O)c1-c1ccc(N2C[C@@H](CO)O[C@@H](C)C2)nn1 [Example 297, 2-[6-[(2S,6S)-2-(hydroxymethyl)-6-methyl-morpholin-4-yl]pyridazin-3-yl]-3-methyl-5-(trifluoromethyl)phenol] | > 10000 | 11 |
| CN1CC[C@H]2OCCN(c3cc(C(F)F)c(-c4ccc(C(F)(F)F)cc4O)nn3)[C@H]2C1 [Example 298, 2-[6-[(4aS,8aR)-6-methyl-3,4a,5,7,8,8a-hexahydro-2H-pyrido[4,3-b][1,4]oxazin-4-yl]-4-(difluoromethyl)pyridazin-3-yl]-5-(trifluoromethyl)phenol] | > 10000 | 3 |
| Cc1cc(C)c(-c2ccc(N3CCO[C@@H]4CCN(C)C[C@@H]43)nn2)c(O)c1 [Example 311, 2-[6-[(4aS,8aR)-6-methyl-3,4a,5,7,8,8a-hexahydro-2H-pyrido[4,3-b][1,4]oxazin-4-yl]pyridazin-3-yl]-3,5-dimethyl-phenol] | > 10000 | 2 |
| Cc1ccc(-c2nnc(N3CCO[C@@H]4CCNC[C@@H]43)cc2C(F)F)c(O)c1 [Example 322, 2-[6-[(4aS,8aR)-2,3,4a,5,6,7,8,8a-octahydropyrido[4,3-b][1,4]oxazin-4-yl]-4-(difluoromethyl)pyridazin-3-yl]-5-methyl-phenol] | > 10000 | 80 |

Further lines, results first:

| IC50 [1] [nM] | IC50 (NLRP3 inflammasome) [nM] | Compound |
| --- | --- | --- |
| > 10000 | 64 | CCc1cc(C)c(-c2ccc(N3CCO[C@H](CO)C3)nn2)c(O)c1 [Example 245, 5-ethyl-2-[6-[(2S)-2-(hydroxymethyl)morpholin-4-yl]pyridazin-3-yl]-3-methylphenol] |
| > 10000 | 30 | Cc1cc(C(F)(F)F)cc(O)c1-c1ccc(N2CCO[C@H](C)C2)nn1 [Example 258, 3-methyl-2-[6-[(2R)-2-methylmorpholin-4-yl]pyridazin-3-yl]-5-(trifluoromethyl)phenol] |
| > 10000 | 185 | CC(=O)NC[C@@H]1CN(c2ccc(-c3c(C)cc(Cl)cc3O)nn2)CCO1 [Example 267, N-[[(2R)-4-[6-(4-chloro-2-hydroxy-6-methyl-phenyl)pyridazin-3-yl]morpholin-2-yl]methyl]acetamide] |
| > 10000 | 263 | CN1CC[C@@H]2OCCN(c3cc(C(F)F)c(-c4ccc(C(F)(F)F)cc4O)nn3)[C@@H]2C1 [Example 268, 2-[6-[(4aR,8aS)-6-methyl-3,4a,5,7,8,8a-hexahydro-2H-pyrido[4,3-b][1,4]oxazin-4-yl]-4-(difluoromethyl)pyridazin-3-yl]-5-(trifluoromethyl)phenol] |
| > 10000 | 76 | CC(=O)NC[C@H]1CN(c2ccc(-c3c(C)cc(Cl)cc3O)nn2)CCO1 [Example 280, N-[[(2S)-4-[6-(4-chloro-2-hydroxy-6-methylphenyl)pyridazin-3-yl]morpholin-2-yl]methyl]acetamide] |
| > 10000 | 65 | Cc1cc(Cl)cc(O)c1-c1ccc(N2CCO[C@@H](CNC(=O)C(C)C)C2)nn1 [Example 285, N-[[(2S)-4-[6-(4-chloro-2-hydroxy-6-methylphenyl)pyridazin-3-yl]morpholin-2-yl]methyl]-2-methylpropanamide] |
| > 10000 | 1 | Cc1cc(C)c(-c2cc(C(F)F)c(N3CCO[C@@H]4CCN(C)C[C@@H]43)nn2)c(O)c1 [Example 291, 2-[6-[(4aS,8aR)-6-methyl-3,4a,5,7,8,8a-hexahydro-2H-pyrido[4,3-b][1,4]oxazin-4-yl]-5-(difluoromethyl)pyridazin-3-yl]-3,5-dimethyl-phenol] |
| > 10000 | 15 | Cc1cccc(O)c1-c1ccc(N2CCO[C@H]3CCN(C)C[C@H]32)nn1 [Example 299, 2-[6-[(4aR,8aS)-6-methyl-3,4a,5,7,8,8a-hexahydro-2H-pyrido[4,3-b][1,4]oxazin-4-yl]pyridazin-3-yl]-3-methyl-phenol] |
| > 10000 | 13 | Cc1cc(C(F)(F)F)cc(O)c1-c1ccc(N2C[C@H](CO)O[C@H](C)C2)nn1 [Example 302, 2-[6-[(2R,6R)-2-(hydroxymethyl)-6-methyl-morpholin-4-yl]pyridazin-3-yl]-3-methyl-5-(trifluoromethyl)phenol] |
| > 10000 | 9 | Cc1cc(Cl)cc(O)c1-c1ccc(N2CCO[C@H]3CCNC[C@H]32)nn1 [Example 308, 2-[6-[(4aR,8aS)-2,3,4a,5,6,7,8,8a-octahydropyrido[4,3-b][1,4]oxazin-4-yl]pyridazin-3-yl]-5-chloro-3-methyl-phenol] |
| > 10000 | 18 | Cc1cc(C)c(-c2ccc(N3CCO[C@H]4CCNC[C@H]43)nn2)c(O)c1 [Example 314, 2-[6-[(4aR,8aS)-2,3,4a,5,6,7,8,8a-octahydropyrido[4,3-b][1,4]oxazin-4-yl]pyridazin-3-yl]-3,5-dimethyl-phenol] |
